Assay results as given in US20100233256A1, “SYNERGISTIC COMBINATIONS FOR TREATING HYPERTENSION” (LYCORED LTD., priority 2007, published 2010).

Tested on: adhesion of neutrophils to EA.hy 926 endothelial cell line
Assay: Adhesion of neutrophils to TNFα-induced EA.hy 926 endothelial cells
Format: cell-based
Settings: for reduction of adhesion of neutrophils to cytokine-induced endothelial cell line: EAhy. 926; for inhibition of the adhesion: lower concentration, percent of the adhesion induced by TNFα
Experimental: The applicants of the present invention have shown that lycopene, lutein and 7% Lye-O-Mato® can improve endothelial function by reducing, to similar extent (60±15%), the adhesion of neutrophils to cytokine-induced endothelial cell line (EAhy. 926). […] Lycopene 610 and oleoresin were diluted by 1:12 fold and lutein by 1:8 fold which result in ˜0.2 μM lycopene 610, ˜0.125 μM oleoresin and ˜0.6 μM lutein. The adhesion of neutrophils to EA.hy 926 cells were measured after the endothelial cells were induced by TNFα which result in increase of 60±10% in the adhesion from their combination, was calculated as percent of the adhesion induced by TNFα

Row | Compound | reduction of adhesion of neutrophils to cytokine-induced endothelial cell line (high concentration: lutein 4-5 μM) | inhibition of the adhesion (~0.6 μM lutein, FIG. 1A) | reduction of adhesion of neutrophils to cytokine-induced endothelial cell line (high concentration: lycopene 610 2-3 μM) | inhibition of the adhesion (~0.2 μM lycopene 610, FIG. 1B)
1 | CC1=C[C@H](O)CC(C)(C)[C@H]1/C=C/C(C)=C/C=C/C(C)=C/C=C/C=C(C)/C=C/C=C(C)/C=C/C1=C(C)C[C@@H](O)CC1(C)C [lutein] | 60±15% | 56±15% |  | 
2 | CC(C)=CCC/C(C)=C/C=C/C(C)=C/C=C/C(C)=C/C=C/C=C(C)/C=C/C=C(C)/C=C/C=C(\C)CCC=C(C)C [lycopene] |  |  | 60±15% | 40±22%
